Data set [1] has as its system late-stage (LG) Pf NF54 gametocytes. Further details: method as in PMID 29866868. To be noted: late-stage gametocytes >90% stages IV-V; 48 h incubation; ± SEM; cited from earlier work.
The test system of data set [2] is asexual blood stages of Pf K1 (drug resistant). Further details: method as in PMID 29866868, PMID 31998692. To be noted: cited from earlier work; for IC50: asexual blood stage Pf K1, multidrug resistant, SYBR Green I, ± SEM.
On the set-up of data set [3]: method as in PMID 34097488. The note with it: cited from earlier work.
Data set [4] deals with asexual blood stages of Pf NF54 (drug sensitive). Set-up: method as in PMID 29866868, PMID 31998692. The note with it: asexual blood stage Pf NF54, CQ sensitive; SYBR Green I; ± SEM; cited from earlier work.
The test system of data set [5] is early-stage (EG) Pf NF54 gametocytes. Further details: method as in PMID 29866868. The note with it: early-stage gametocytes >95% stages II-III; 48 h incubation; ± SEM; cited from earlier work.
The test system of another data set is P. berghei sporozoites. To be noted: cited from earlier work; for Maximum inhibition % P. berghei sporozoites: ref S3; for IC50: luciferase-expressing P. berghei ANKA GFP-Luc-SMcon sporozoites in HepG2 cells, 48 h, ± SD, ref S3 (7).
Data set [6] has as its system asexual blood stages of Pf W2 (drug resistant). Set-up: method as in PMID 29866868, PMID 31998692. To be noted: cited from earlier work; for IC50: asexual blood stage Pf W2, multidrug resistant, SYBR Green I, ± SEM.
For data set [7], the system named is P. falciparum asexual blood stage artemisinin-resistant clone ARC08-22 (4G) carrying the PfKI3 C580Y mutation. Set-up: method as in ref S3. The note with it: ref S3, cited from earlier work.
The next data set relates to TM-C2B. Further details: method as in ref S2. The note with it: [3H]-hypoxanthine assay; ref S2; read-out: Antimalarial activities IC50 TM-C2B; cited from earlier work.
Another data set relates to D6 (CQ sensitive). Set-up: method as in ref S2. To be noted: [3H]-hypoxanthine assay; ref S2; read-out: Antimalarial activities IC50 D6; cited from earlier work.
For data set [8], the system named is Chinese hamster ovary (CHO) cells. Set-up: method as in PMID 29866868, PMID 31998692. The note with it: other cell lines including CHO cells; read-out: EC50 cytotoxicity; cited from earlier work.
For another data set, the system named is P. falciparum W2. Set-up: method as in ref S3. To be noted: [3H]-hypoxanthine assay; ref S3; cited from earlier work.
In data set [9] the test system is TM91-C235 (CQ and MFQ resistant). Further details: method as in ref S2. To be noted: [3H]-hypoxanthine assay; ref S2; read-out: Antimalarial activities IC50 TM91-C235; cited from earlier work.
The subject of data set [10] is P. falciparum asexual blood stage artemisinin-resistant clone PL08-009 (5C) carrying the PfKI3 C580Y mutation. Further details: method as in ref S3. To be noted: ref S3, cited from earlier work.
Another data set has as its system 7G8 (CQ resistant). Set-up: method as in ref S2. To be noted: [3H]-hypoxanthine assay; ref S2; read-out: Antimalarial activities IC50 7G8; cited from earlier work.
The subject of data set [11] is fetal rat brain stem cells. To be noted: ref S4 (24), cited from earlier work.
For the next data set, the system named is W2 (CQ resistant). Set-up: method as in ref S2. The note with it: [3H]-hypoxanthine assay; ref S2; read-out: Antimalarial activities IC50 W2; cited from earlier work.
Data set [12] deals with TM93-C1088 (atovaquone and CQ resistant). Further details: method as in ref S2. The note with it: [3H]-hypoxanthine assay; ref S2; read-out: Antimalarial activities IC50 TM93-C1088; cited from earlier work.
In data set [13] the test system is type II tachyzoites (PRU-Luc-GFP). The note with it: sc 10 mg/kg/d for 8 days; cited from earlier work.
Data set [14] in a line: Cytotoxicity (LDH assay) against HepG2 cells. The data set is classed as cell-based. The note with it: human. As for the experimental part: Cytotoxicity against mammalian hepatocellular carcinoma cells (HepG2 cells) was determined using the lactate dehydrogenase assay (LDH, Biovision Inc., Milpitas, CA, USA). […] Compound working solutions were prepared from 10 mM stock solutions (100% DMSO) in complete DMEM to a final DMSO (Sigma-Aldrich) conc. of <0.1% (vol/vol). […] Data analysis was performed using GraphPad Prism (version 6) software.

In another data set the test system is HepG2. To be noted: cited from earlier work; for SI = EC50 HepG2/IC50 P. berghei sporozoites: ref S3.
Setting [15] is: effect on the cytoskeleton on day 7.

SMILES strings stand for the structures. Like-named read-outs stand apart in the source and are kept apart here.

The IC50 is the point on the concentration scale where inhibition reaches its midpoint. One may read the Cmax as the highest concentration seen after dosing. As to `CO[C@H]1O[C@@H]2O[C@@]3(C)CC[C@H]4[C@H](C)CC[C@@H]([C@H]1C)[C@@]24OO3` [Artemether 3, Artemether], the IC50 in data set [1] was 0.136 ± 0.0859 µM; in data set [2], 0.009 ± 0.002 µM; in data set [4] it was 0.00186 ± 0.00017 µM; in data set [5] it was 0.0377 ± 0.002 µM; in the data set on P. berghei sporozoites, more than 0.104 µM; in the data set with P. berghei sporozoites (listed as artemether 3), more than 10 µM. Moreover, in data set [6], the IC50 is 0.007 ± 0.001 µM. In addition, in [2], the “RI (resistance index) = IC50 K1/IC50 NF54” value was 4.8. For the same compound, the “F% (oral bioavailability)” value in data set [3] is 2%. In addition, in [3] (oral administration, same dose, same murine model), the Cmax was 0.6 µM. Besides, in the data set on P. berghei sporozoites (at 10 µM), the “Maximum inhibition % P. berghei sporozoites” value is recorded as 49.4%. Further, the “RI = IC50 W2/IC50 NF54” value in data set [6] is given as 3.8.
As usually defined, the IC90 is the concentration at which the effect reaches the 90% level. In general, EC50 refers to the concentration at which the effect is half-maximal. Consider `C[C@H]1[C@@H](O)O[C@@H]2O[C@@]3(C)CC[C@H]4[C@H](C)CC[C@@H]1[C@@]24OO3` [DHA 2, Dihydroartemisinin], for which the IC50 in data set [1] was 0.0337 ± 0.00198 µM; in data set [7] (48 h life cycle, PfKI3 C580Y), 0.00668 µM; in data set [2], 0.00151 ± 0.00033 µM; in the data set on TM-C2B, 0.002 ± 0.0007 µM; in the data set with D6 (CQ sensitive) it was 0.0017 ± 0.0004 µM; in data set [4], 0.00251 ± 0.00019 µM. Also, the IC50 in the data set on P. falciparum W2 was 0.00458 µM; in data set [9], 0.0023 ± 0.0007 µM; in data set [10] (36 h life cycle, PfKI3 C580Y), 0.00641 µM; in [5], 0.043 ± 0.0039 µM; in the data set with 7G8 (CQ resistant), 0.0013 ± 0.0002 µM; in the data set on W2 (CQ resistant), 0.0022 ± 0.0008 µM. Moreover, the results for the IC50 in [12] and in data set [6] were 0.0014 ± 0.0004 µM and 0.00174 ± 0.00022 µM, respectively. In addition, the IC90 in data set [7] (48 h life cycle, PfKI3 C580Y) was 0.0154 µM; in the data set on P. falciparum W2, 0.0103 µM; in data set [10] (36 h life cycle, PfKI3 C580Y) it was 0.0107 µM. Moreover, the “RI = IC50 for ARC08-22(4G)/IC50 for W2” value in [7] is reported as 1.5. In addition, the “RI (resistance index) = IC50 K1/IC50 NF54” value in data set [2] is recorded as 0.6. In data set [8], the 50% effective concentration (EC50) was 25.2 µM. Moreover, the “RI = IC50 for PL08-09 (5C)/IC50 for W2” value in data set [10] is recorded as 1.4. Further, in data set [11] (ATP levels 1 day after initial administration), the “ATP IC50” value was 0.08 mg/L. Further, the “Neurofilaments IC50” value in data set [11] (setting [15]) was 0.01 mg/L. Also, the “Neurofilaments NOEC” value in data set [11] (setting [15]) is given as less than 0.001 µg/mL. For the same compound, the “Viability IC50” value in data set [11] (neuron-specific enolase activity, 7 days exposure) was 5.0 mg/L. The “RI = IC50 W2/IC50 NF54” value in [6] is listed as 0.7.
As to `C[C@@H]1CC[C@H]2[C@@H](C)C(=O)O[C@@H]3O[C@@]4(C)CC[C@@H]1[C@]32OO4` [Artemisinin 1, Artemisinin, reference compound], the “mice surviving the infection, acute phase” value in [13] was “all mice treated with artemisinin succumbed to infection”.
Turning to `OC(c1cc(C(F)(F)F)nc2c(C(F)(F)F)cccc12)C1CCCCN1` (stereo not shown) [Mefloquine], the IC50 is 0.13 ± 0.051 µM in the data set on TM-C2B, 0.107 ± 0.041 µM in data set [9], 0.0054 ± 0.0017 µM in the data set on 7G8 (CQ resistant) and 0.016 ± 0.005 µM in data set [12].
In [14], `CCN(CC)CCCC(C)Nc1ccnc2cc(Cl)ccc12` (stereo not shown) [Chloroquine] returned an IC50 at 24 h of 58.4 µM. Moreover, the IC50 in [2] was 0.154 ± 0.014 µM; in the data set with TM-C2B, 0.095 ± 0.023 µM; in the data set on D6 (CQ sensitive), 0.016 ± 0.002 µM; in [4] it was 0.01 ± 0.003 µM; in data set [9], 0.07 ± 0.012 µM; in the data set with 7G8 (CQ resistant), 0.084 ± 0.018 µM. The IC50 with W2 (CQ resistant) is 0.195 ± 0.07 µM; in data set [12] it was 0.36 ± 0.038 µM.
On to `O=C1C(O)=C([C@H]2CC[C@H](c3ccc(Cl)cc3)CC2)C(=O)c2ccccc21` [Atovaquone], for which the IC50 with TM-C2B is 31.9 µM; in data set [9] it was 0.0022 ± 0.0007 µM; in the data set with 7G8 (CQ resistant), 0.0031 ± 0.0009 µM; with P. berghei sporozoites it was 0.00252 ± 0.000997 µM; in [12] it was 18.8 µM. Moreover, in the data set with HepG2, the EC50 was more than 0.25 µM. In addition, in the data set on HepG2, the “SI = EC50 HepG2/IC50 P. berghei sporozoites” value was more than 100. Moreover, in the data set on P. berghei sporozoites (at 0.5 µM), the “Maximum inhibition % P. berghei sporozoites” value is 94.85±2.76%.
In the case of `CN(C)c1ccc2nc3ccc(=[N+](C)C)cc-3sc2c1` [Methylene Blue], the IC50 is 0.143 ± 0.0167 µM in data set [1], 0.005 ± 0.0008 µM in data set [4] and 0.095 ± 0.0113 µM in data set [5].
In the case of `COc1ccc(C[C@H](N)C(=O)N[C@H]2[C@@H](O)[C@H](n3cnc4c(N(C)C)ncnc43)O[C@@H]2CO)cc1` [Puromycin, reference compound], in the data set with HepG2, the EC50 was 0.117 µM and the “SI = EC50 HepG2/IC50 P. berghei sporozoites” value was 5.15. Also, the “Maximum inhibition % P. berghei sporozoites” value in the data set with P. berghei sporozoites (at 5 µM) is on record as 110±4.24%. Also, the IC50 in the data set with P. berghei sporozoites was 0.0227 ± 0.00453 µM.

The values above are taken from publication PMC8704606, “The Artemiside-Artemisox-Artemisone-M1 Tetrad: Efficacies against Blood Stage P. falciparum Parasites, DMPK Properties, and the Case for Artemiside” (Pharmaceutics, 2021).
